Reference: the NIST ThermoML archive (doi:10.1021/je0601513)

Test: molar heat capacity at constant pressure; xn = mol fraction of the nth substance listed
Details: 101 kPa, Liquid, Small sample (50 mg) DSC

C[S+](C)[O-] [dimethyl sulfoxide] + CCCO
molar heat capacity at constant pressure [J/K/mol]
Details | 288.15 K | 298.15 K | 308.15 K
x1 = 0.0514 | 138.1 | 143.6 | 149.7
x1 = 0.1127 | 137.3 | 142.3 | 147.9
x1 = 0.2114 | 136.2 | 140.3 | 145.2
x1 = 0.3163 | 135.5 | 139.1 | 143
x1 = 0.418 | 135.3 | 138.6 | 141.4
x1 = 0.5029 | 135.7 | 138.6 | 140.9
x1 = 0.6216 | 136.7 | 139.7 | 141.2
x1 = 0.7068 | 138.1 | 141.1 | 142.4
x1 = 0.7975 | 140 | 143.5 | 144.7
x1 = 0.8537 | 141.7 | 145.4 | 146.8
x1 = 0.8994 | 143.1 | 147.4 | 148.7
x1 = 0.9429 | 144.6 | 149.4 | 151
